Data as given in paper PMC12920416, “Preclinical development of [^18F]TAAR1-2203 as a PET radioligand for imaging TAAR1 expression and receptor occupancy” (European Journal of Nuclear Medicine and Molecular Imaging, 2025).

Legend:
TAAR1 [1] = biological target: T1, TAAR1 (Mus musculus, UniProt Q923Y8); assay: In vitro autoradiography, TAAR1 knockout vs wild-type mouse tissue sections; type: binding
T1 construct: peripheral organs that express endogenous TAAR1; tissue Charles River (wild-type); F. Hoffmann-La Roche Ltd. (TAAR1 knock-out and matched controls); host or cells: mouse pancreas, kidney, liver, brain
Method: (§1) In vitro autoradiography experiments with [^18F]TAAR1-2203 were conducted on mouse and rat pancreas, kidney and brain tissue sections, respectively. Tissue Sect. (20 μm) were thawed on ice for 10 min and preincubated in assay buffer (50 mM Tris, pH 7.4) for 10 min. Subsequently, sections were incubated with [^18F]TAAR1-2203 for 40 min at ambient temperature. For blocking studies, structurally distinct TAAR1 agonists, RO5333943 or RO5425754, were added in excess to the assay buffer at a final concentration of 10 µM. After incubation, sections were washed in assay buffer for 2 min on ice and dipped briefly in water (2 × 5 s), followed by drying and exposure to a phosphor imager plate for 60 min. Imager plates were scanned on an Amersham Typhoon analyzer system, and images were analyzed using ImageQuant TL 8.1, as previously reported.

[2] = Plasma protein binding of tracer, NHP plasma; type: in vitro ADME; details: non-human primate, radiotracer, 10 min incubation, ultrafiltration, read-out: Free fraction in NHP plasma
Method: (§2) Plasma protein binding of [^18F]TAAR1-2203 was determined in mouse, rat, NHP, and human plasma. Plasma samples (150 µL, n = 3) were preincubated at 37 °C for 5 min before addition of [^18F]TAAR1-2203 (10 µCi, 0.37 MBq). After 10 min of incubation, 300 µL of ice-cold PBS were added. Samples (300 µL) were then transferred onto Amicon® centrifugal filter units (10 kDa cut-off) and centrifuged at 2100 g for 15 min at 4 °C. Filtrates were washed with 300 µL PBS and centrifuged again. Radioactivity in the filtrate and protein-bound fractions was measured using a Packard Cobra 5002/5003 gamma counter.

[3] = Serum stability, NHP serum; type: in vitro ADME, non-human primate; details: 60 min, 37 °C
Method: (§3) The stability of [^18F]TAAR1-2203 was assessed in mouse, rat, NHP, and human serum. Aliquots (400 µL) of serum were preincubated at 37 °C for 5 min, followed by the addition of [^18F]TAAR1-2203 (20 µL, 300 µCi/11.1 MBq). After 60 min, 200 µL of each sample was collected, quenched with ice-cold MeCN (200 µL), centrifuged at 10,000 g for 5 min, and analyzed by radio-HPLC (XBridge C18 column, 3.5 μm, 4.6 mm × 150 mm; CH3CN/H2O 35:65 with 0.1% TEA; flow rate 1.0 mL/min). Experiments in PBS served as negative controls, and benfluorex hydrochloride was used as a positive control.

[4] = Plasma protein binding of tracer, mouse plasma; type: in vitro ADME; details: radiotracer, 10 min incubation, ultrafiltration, read-out: Free fraction in mouse plasma
Method: as §2

[5] = Ex vivo radiometabolite analysis; type: in vivo, CD1 mice; details: 30 min post-injection, n = 3
Method: Female CD1 mice (20 weeks old, n = 3) were injected with [^18F]TAAR1-2203 (100 µCi, 3.7 MBq) and sacrificed 30 min post-injection. Brain, pancreas, and plasma samples were collected. Organs were homogenized in ice-cold acetonitrile (CH3CN). Plasma was obtained by centrifugation at 1400 rpm for 5 min at 4 °C, and proteins were precipitated with repeated CH3CN extraction until clear supernatants were obtained. Analytical samples were spiked with non-radioactive TAAR1-2203 and analyzed by radio-HPLC (XBridge C18 column; CH3CN/H₂O 35:65, with 0.1% TEA; flow rate 1.0 mL/min). Parent tracer fractions were determined as the percentage of intact [^18F]TAAR1-2203 relative to total detected radioactivity.

[6] = Microsomal stability, human liver microsomes; type: in vitro ADME; details: after 60 min, 37 °C
Method: (§4) Microsomal stability of [^18F]TAAR1-2203 was evaluated using mouse, rat, NHP, and human liver microsomes. Potassium phosphate buffer (340 µL, 0.5 M, pH 7.4) was combined with NADPH regenerating solution (40 µL, 10 mM). Radiotracer solution (10 µL, 150 µCi, 5.5 MBq) was added, and the mixture was preincubated at 37 °C for 5 min. Liver microsomes (20 µL) were subsequently added. Incubations were carried out at 37 °C with gentle shaking. At 30 and 60 min, 200 µL aliquots were quenched with ice-cold MeCN (200 µL), centrifuged at 10,000 g for 5 min, and analyzed using an AR-2000 radio-TLC imaging scanner (Eckert & Ziegler).

[7] = Stability in formulation, saline and phosphate buffer; type: physicochemical; details: up to 4 h at ambient temperature
Method: […] Analytical HPLC was performed using an XBridge C18 column (3.5 μm, 4.6 mm × 150 mm) under isocratic conditions with a mobile phase of MeCN/H2O (35:65, v/v) containing 0.1% triethylamine (TEA) at a flow rate of 1.0 mL/min.

[8] = Microsomal stability, mouse liver microsomes; type: in vitro ADME; details: after 60 min, 37 °C, printed as rodent microsomes
Method: as §4

TAAR1 [9] = biological target: T1, TAAR1; assay: Dynamic PET imaging, baseline vs blockade; type: in vivo, CD1 mice
Method: Dynamic PET imaging was performed for 60 min in female C57BL/6 mice, as well as in TAAR1 knock-out mice and respective controls, under 1–2% (v/v) isoflurane anaesthesia as previously reported. [^18F]TAAR1-2203 (1.5 MBq in 100 µL saline) was administered via tail vein injection. For blocking studies, TAAR1 agonist RO5425754 (4 mg/kg) was injected 5 min prior to radiotracer administration. Dynamic PET scans were acquired using a G8 PET/CT scanner (Sofie Biosciences, Culver, CA, USA) and analyzed with PMOD software (PMOD Technologies Ltd., Zurich, Switzerland). Radioactivity was decay-corrected and expressed as standardized uptake values (SUVs), normalized to body weight and injected dose.

[10] = Serum stability, human serum; type: in vitro ADME; details: 60 min, 37 °C
Method: as §3

TAAR1 [11] = biological target: T2, TAAR1 (Rattus norvegicus, UniProt Q923Y9); assay: In vitro autoradiography, rat pancreas and kidney sections; type: binding, Sprague Dawley rats; details: tracer 5–8 nM; blockade with RO5333943 or RO5425754 at 10 µM
T2 construct: peripheral organs that express endogenous TAAR1; tissue Charles River; host or cells: rat pancreas, kidney
Method: as §1

[12] = Serum stability, mouse serum; type: in vitro ADME; details: 60 min, 37 °C
Method: as §3

[13] = PET, blockade with RO5425754 4 mg/kg

T1 sequence (Q923Y8 whole entry): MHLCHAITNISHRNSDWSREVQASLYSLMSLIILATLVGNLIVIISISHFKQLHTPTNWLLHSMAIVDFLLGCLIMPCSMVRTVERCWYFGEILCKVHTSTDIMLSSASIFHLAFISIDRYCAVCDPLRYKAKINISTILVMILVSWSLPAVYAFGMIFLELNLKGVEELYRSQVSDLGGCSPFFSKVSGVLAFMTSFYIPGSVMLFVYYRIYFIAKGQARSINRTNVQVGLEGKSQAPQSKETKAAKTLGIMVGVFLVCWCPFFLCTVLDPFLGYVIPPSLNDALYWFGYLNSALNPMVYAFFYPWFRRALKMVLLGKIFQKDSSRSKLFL
T2 sequence (Q923Y9 whole entry): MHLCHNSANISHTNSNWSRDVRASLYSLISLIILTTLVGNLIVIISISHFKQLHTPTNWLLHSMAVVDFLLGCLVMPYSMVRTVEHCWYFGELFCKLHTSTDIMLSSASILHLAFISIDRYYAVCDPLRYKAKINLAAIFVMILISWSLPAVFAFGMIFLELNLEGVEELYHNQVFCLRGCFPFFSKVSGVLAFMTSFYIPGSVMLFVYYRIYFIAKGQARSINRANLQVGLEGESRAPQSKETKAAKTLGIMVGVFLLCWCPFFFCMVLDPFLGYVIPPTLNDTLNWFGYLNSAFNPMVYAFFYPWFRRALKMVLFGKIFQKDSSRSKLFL

## Cc1c([18F])cccc1[C@H]1COC(N)=N1 [[^18F]TAAR1-2203]
TAAR1 [1]
  Tracer signal in brain tissue, TAAR1 KO vs WT mice: comparably low in both WT and KO animals
TAAR1 [1]; n = 6, p < 0.001
  Change in tracer binding in kidney of TAAR1 KO vs WT mice: −50%
  Change in tracer binding in pancreas of TAAR1 KO vs WT mice: −32%
[2]
  fraction unbound at 10 min, 2.47 MBq/mL: ~0.6
[3]
  Intact parent tracer in NHP serum: > 99%
[4]
  fraction unbound at 10 min, 2.47 MBq/mL: ~0.6
[5]
  Parent tracer fraction in brain: exceeded 80%
  Parent tracer fraction in pancreas: exceeded 80%
  Parent tracer fraction in plasma: exceeded 80%
[6]
  Intact tracer in human liver microsomes: > 99%
[7]
  Stability in formulation: no detectable degradation
[8]
  Intact tracer in mouse liver microsomes: > 98%
TAAR1 [9]; PET imaging and in vitro autoradiography
  Specific binding in the CNS: no specific TAAR1 binding was observed
TAAR1 [9]; [13]
  Tracer uptake in kidney (AUC 0–60 min), blockade vs baseline: significant reduction
  Tracer uptake in pancreas (AUC 0–60 min), blockade vs baseline: significant reduction
[10]
  Intact parent tracer in human serum: > 99%
TAAR1 [11]
  Reduction of tracer binding, rat kidney: greater than 70%
  Reduction of tracer binding, rat pancreas: more than 50%
[12]
  Intact parent tracer in mouse serum: > 99%
